Laboratory results reported in paper PMC3066543, “Procyanidins are potent inhibitors of LOX-1: a new player in the French Paradox” (Proceedings of the Japan Academy. Series B, Physical and …, 2011).

How the values were obtained:
human LOX-1 = molecular target: T1, human LOX-1 (Homo sapiens, UniProt P78380); assay: DiI-oxLDL binding to LOX-1-CHO cells (4 ℃, 45 min); type: cell-based
T1 construct: expressed in transfected cells; host or cells: CHO-K1 (LOX-1-CHO), doxycycline-induced
Method: Tetracycline-inducible human LOX-1 (tagged with V5-6×His at C-terminus) expressing CHO-K1 (LOX-1-CHO) cells were maintained as previously described.[8]) The cells were seeded in 96-well plate at 10^4 cells/well in the presence of doxycycline (1 µg/mL) (Calbiochem, La Jolla, CA, USA) and were incubated in Ham’s F-12 medium containing 10% FBS at 37 ℃ for 24 h. After being washed with the medium without FBS, the cells were treated with foodstuff extracts or an anti-LOX-1 antibody at the final concentration of 10 µg/mL for 1 h. […] After washing, the cells were fixed with 10% formalin, and were stained with 4′,6-diamidino-2-phenylindole (DAPI) (Sigma, St. Louis, MO, USA). The binding of DiI-oxLDL to LOX-1-CHO cells were determined similarly to the uptake assay, except that the incubation of DiI-oxLDL was performed at 4 ℃ for 45 min. The samples were subjected to fluorescence microscopic analysis (Axiovert 200M, Zeiss, Oberkochen, Germany) or quantitative fluorescence analysis using the IN Cell analyzer system (GE Healthcare, Fairfield, CT, USA). Cell-associated DiI-oxLDL was determined as a ratio of DiI-oxLDL fluorescence intensity per cell in the presence of foodstuff extracts to that in the absence of extracts. All experiments were conducted in more than triplicates. For the determination of fluorescence quenching by procyanidins, the fluorescence was also measured before washing out unbound DiI-oxLDL (Spectramax, Molecular Devices, Sunnyvale, CA, USA). The final concentration of DMSO was less than 0.1% of total volume.

[1] = Plasma concentrations of procyanidin B2 and C1 in rats given OPC; type: in vivo; conditions: male, stroke-prone spontaneously hypertensive (SHR-SP), rat, po, 0.5 % (w/v) OPC in drinking saline, rats given 0.5% OPC orally in drinking saline for two days, sampled 7:00–8:00
Method: All protocols were approved by the Institutional Animal Care and Use Committee of the National Cerebral and Cardiovascular Center. Animals were individually housed at 23 ± 2 ℃ with 12 h light-dark cycles (7:00–19:00 light-on). Eight-week-old male stroke-prone spontaneously hypertensive rats (SHR-SP) (CLEA Japan, Tokyo, Japan) were divided into two groups (n = 8 each) with similar blood pressure, heart rates and body weights (tail cuff and pulse transducer system, BP-98A, Softron, Tokyo, Japan). They were given high fat diet without cholic acid or vitamin E (CLEA Japan, Tokyo, Japan) and physiological saline as drinking water for 2 weeks. Half of the rats received physiological saline containing 0.5%(w/v) oligomeric procyanidins (OPC) with various chain lengths purified from apples. At the end of the study, the rats were euthanized with isoflurane inhalation and blood was collected from vena cava between 11:00–14:00. The rats were perfused systemically with physiological saline for Oil Red O staining. Total cholesterol, high-density lipoprotein (HDL) cholesterol, triglyceride, and thiobarbituric acid reactive substance (TBARS) were determined enzymatically using commercially available kits (Wako Pure Chemical Industries, Osaka, Japan; Zeptometrix corporation, Buffalo, NY, USA). […]

Row | IC50 (human LOX-1; DiI-oxLDL 10 µg/mL) [nM] | concentration at 2 days [1] [ng/mL] | fluorescence of DiI-oxLDL in LOX-1-CHO cells (binding, microscopy) (human LOX-1; 300 ng/mL, DiI-oxLDL 10 µg/mL, Fig. 4A) | IC50 (human LOX-1; DiI-oxLDL 1 µg/mL, data not shown) [nM] | IC50 (human LOX-1; DiI-oxLDL 3 µg/mL, data not shown) [nM] | SMILES
1 | 54.2 | – | – | – | – | Oc1cc(O)c2c(c1)OC(c1ccc(O)c(O)c1)C(O)C2c1c(O)cc2c(c1O)C(c1c(O)cc(O)c3c1OC(c1ccc(O)c(O)c1)C(O)C3)C(O)C(c1ccc(O)c(O)c1)O2 (stereo not drawn) [epicatechin(4β-6)epicatechin(4β-8)catechin]
2 | 84.2 | – | – | – | – | Oc1cc(O)c2c(c1)OC(c1ccc(O)c(O)c1)C(O)C2c1c(O)cc2c(c1O)C(c1c(O)cc(O)c3c1OC(c1ccc(O)c(O)c1)C(O)C3)C(O)C(c1ccc(O)c(O)c1)O2 (stereo not drawn) [epicatechin(4β-6)epicatechin(4β-8)epicatechin]
3 | 47.3 | – | – | – | – | Oc1cc(O)c2c(c1)OC(c1ccc(O)c(O)c1)C(O)C2c1c(O)cc(O)c2c1OC(c1ccc(O)c(O)c1)C(O)C2c1c(O)cc(O)c2c1OC(c1ccc(O)c(O)c1)C(O)C2 (stereo not drawn) [epicatechin(4β-8)epicatechin(4β-8)catechin]
4 | – | 7.9 ± 1.8 | – | – | – | Oc1cc(O)c2c(c1)O[C@H](c1ccc(O)c(O)c1)[C@H](O)[C@H]2c1c(O)cc(O)c2c1O[C@H](c1ccc(O)c(O)c1)[C@H](O)C2 [procyanidin B2, epicatechin(4β-8)epicatechin]
5 | 58.8 | 4.9 ± 1.9 | significantly attenuated | 8.08 | 30 | Oc1cc(O)c2c(c1)O[C@H](c1ccc(O)c(O)c1)[C@H](O)[C@H]2c1c(O)cc(O)c2c1O[C@H](c1ccc(O)c(O)c1)[C@H](O)[C@H]2c1c(O)cc(O)c2c1O[C@H](c1ccc(O)c(O)c1)[C@H](O)C2 [procyanidin C1, epicatechin(4β-8)epicatechin(4β-8)epicatechin]
